Data taken from ChEMBL document CHEMBL1201862, “PubChem BioAssay data set” (2004).
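Assay format: 96-well plates, 48-hour exposure. GI50 marks 50% less growth.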 The source made the active and inactive calls. Rule as the data show it: active = GI50 up to about 1.1 µM and inactive = higher.

Assays:
Test in all cases: NCI tumour cell line growth inhibition, 48 h
786-0 = tested on: 786-0
A498 = tested on: A498
A549 = tested on: A549
ACHN = tested on: ACHN
CCRF-CEM = tested on: CCRF-CEM
DLD-1 = tested on: DLD-1
DMS-114 = tested on: DMS-114
EKVX = tested on: EKVX
HCC 2998 = tested on: HCC 2998
HCT-116 = tested on: HCT-116
HCT-15 = tested on: HCT-15
HL-60 = tested on: HL-60
HOP-18 = tested on: HOP-18
HOP-62 = tested on: HOP-62
HOP-92 = tested on: HOP-92
HT-29 = tested on: HT-29
IGROV-1 = tested on: IGROV-1
K562 = tested on: K562
KM-20L2 = tested on: KM-20L2
KM12 = tested on: KM12
LOX IMVI = tested on: LOX IMVI
LXFL 529 = tested on: LXFL 529
M14 = tested on: M14
MOLT-4 = tested on: MOLT-4
Malme-3M = tested on: Malme-3M
NCI-H226 = tested on: NCI-H226
NCI-H23 = tested on: NCI-H23
NCI-H460 = tested on: NCI-H460
OVCAR-3 = tested on: OVCAR-3
OVCAR-4 = tested on: OVCAR-4
OVCAR-5 = tested on: OVCAR-5
OVCAR-8 = tested on: OVCAR-8
RPMI-8226 = tested on: RPMI-8226
RXF 393 = tested on: RXF 393
SF-268 = tested on: SF-268
SF-539 = tested on: SF-539
SK-MEL-28 = tested on: SK-MEL-28
SK-MEL-2 = tested on: SK-MEL-2
SK-MEL-5 = tested on: SK-MEL-5
SK-OV-3 = tested on: SK-OV-3
SN12C = tested on: SN12C
SNB-19 = tested on: SNB-19
SNB-75 = tested on: SNB-75
SNB-78 = tested on: SNB-78
SR = tested on: SR
SW-620 = tested on: SW-620
TK-10 = tested on: TK-10
U-251 = tested on: U-251
UACC-257 = tested on: UACC-257
UACC-62 = tested on: UACC-62
UO-31 = tested on: UO-31
XF498 = tested on: XF498
COLO 205 = tested on: COLO 205
DMS-273 = tested on: DMS-273
M19-MEL = tested on: M19-MEL
SF-295 = tested on: SF-295

Question: How did the GI50 (786-0) turn out when `CCOC(=O)CN1C(=O)c2cccc3cc([N+](=O)[O-])cc(c23)C1=O` was run?
Answer: 13.4 µM (inactive)

Question: What about the GI50 (A498) of the same molecule?
Answer: 16.8 µM (inactive)

Question: And the GI50 (A549)?
Answer: 13.1 µM (inactive)

Question: What about the GI50 (ACHN) of the same molecule?
Answer: 10.1 µM (inactive)

Question: What about the GI50 (CCRF-CEM) of the same molecule?
Answer: 0.287 µM (active)

Question: What about the GI50 (DLD-1) of the same molecule?
Answer: 2.21 µM (inactive)

Question: What about the GI50 (DMS-114) of the same molecule?
Answer: 2.28 µM (inactive)

Question: What about the GI50 (EKVX) of the same molecule?
Answer: 15.2 µM (inactive)

Question: And the GI50 (HCC 2998)?
Answer: 4.23 µM (inactive)

Question: What about the GI50 (HCT-116) of the same molecule?
Answer: 1.63 µM (inactive)

Question: And the GI50 (HCT-15)?
Answer: 1.65 µM

Question: And the GI50 (HL-60)?
Answer: 0.637 µM (active)

Question: What about the GI50 (HOP-18) of the same molecule?
Answer: 19.7 µM (inactive)

Question: And the GI50 (HOP-62)?
Answer: 18.2 µM (inactive)

Question: And the GI50 (HOP-92)?
Answer: 2.19 µM (inactive)

Question: And the GI50 (HT-29)?
Answer: 12.1 µM (inactive)

Question: And the GI50 (IGROV-1)?
Answer: 3.97 µM (inactive)

Question: And the GI50 (K562)?
Answer: 0.459 µM (active)

Question: And the GI50 (KM-20L2)?
Answer: 13.3 µM (inactive)

Question: What about the GI50 (KM12) of the same molecule?
Answer: 2.52 µM (inactive)

Question: What about the GI50 (LOX IMVI) of the same molecule?
Answer: 1.43 µM (inactive)

Question: What about the GI50 (LXFL 529) of the same molecule?
Answer: 1.71 µM (inactive)

Question: What about the GI50 (M14) of the same molecule?
Answer: 3.35 µM (inactive)

Question: What about the GI50 (MOLT-4) of the same molecule?
Answer: 0.373 µM (active)

Question: What about the GI50 (Malme-3M) of the same molecule?
Answer: 2.45 µM (inactive)

Question: What about the GI50 (NCI-H226) of the same molecule?
Answer: 10.7 µM (inactive)

Question: And the GI50 (NCI-H23)?
Answer: 2.04 µM (inactive)

Question: What about the GI50 (NCI-H460) of the same molecule?
Answer: 4.89 µM (inactive)

Question: And the GI50 (OVCAR-3)?
Answer: 4.7 µM (inactive)

Question: What about the GI50 (OVCAR-4) of the same molecule?
Answer: 1.85 µM (inactive)

Question: And the GI50 (OVCAR-5)?
Answer: 15.5 µM (inactive)

Question: And the GI50 (OVCAR-8)?
Answer: 1.78 µM (inactive)

Question: What about the GI50 (RPMI-8226) of the same molecule?
Answer: 1.81 µM (inactive)

Question: What about the GI50 (RXF 393) of the same molecule?
Answer: 1.84 µM (inactive)

Question: And the GI50 (SF-268)?
Answer: 3.37 µM (inactive)

Question: What about the GI50 (SF-539) of the same molecule?
Answer: 3.57 µM (inactive)

Question: What about the GI50 (SK-MEL-28) of the same molecule?
Answer: 2.85 µM (inactive)

Question: And the GI50 (SK-MEL-2)?
Answer: 1.17 µM (inactive)

Question: And the GI50 (SK-MEL-5)?
Answer: 12.4 µM (inactive)

Question: And the GI50 (SK-OV-3)?
Answer: 26.2 µM (inactive)

Question: What about the GI50 (SN12C) of the same molecule?
Answer: 4.93 µM (inactive)

Question: And the GI50 (SNB-19)?
Answer: 18.2 µM (inactive)

Question: And the GI50 (SNB-75)?
Answer: 10.4 µM (inactive)

Question: And the GI50 (SNB-78)?
Answer: 5.82 µM (inactive)

Question: What about the GI50 (SR) of the same molecule?
Answer: 0.0525 µM (active)

Question: What about the GI50 (SW-620) of the same molecule?
Answer: 1.59 µM (inactive)

Question: And the GI50 (TK-10)?
Answer: 17 µM (inactive)

Question: What about the GI50 (U-251) of the same molecule?
Answer: 7.55 µM (inactive)

Question: What about the GI50 (UACC-257) of the same molecule?
Answer: 2.51 µM (inactive)

Question: And the GI50 (UACC-62)?
Answer: 2.4 µM (inactive)

Question: What about the GI50 (UO-31) of the same molecule?
Answer: 14 µM (inactive)

Question: And the GI50 (XF498)?
Answer: 2.03 µM (inactive)

Question: With `Cc1cc2c(C)n(Cc3ccccc3Cl)nc2c(C(=O)O)c1C` as the molecule, how does the GI50 (786-0) read?
Answer: > 100 µM (inactive)

Question: And the GI50 (A549)?
Answer: > 100 µM (inactive)

Question: And the GI50 (ACHN)?
Answer: > 100 µM (inactive)

Question: What about the GI50 (CCRF-CEM) of the same molecule?
Answer: > 100 µM (inactive)

Question: And the GI50 (COLO 205)?
Answer: > 10 µM (inactive)

Question: And the GI50 (DLD-1)?
Answer: > 100 µM (inactive)

Question: What about the GI50 (DMS-273) of the same molecule?
Answer: > 100 µM (inactive)

Question: What about the GI50 (EKVX) of the same molecule?
Answer: > 100 µM (inactive)

Question: What about the GI50 (HCC 2998) of the same molecule?
Answer: > 100 µM (inactive)

Question: What about the GI50 (HCT-116) of the same molecule?
Answer: > 100 µM (inactive)

Question: And the GI50 (HCT-15)?
Answer: > 100 µM

Question: What about the GI50 (HL-60) of the same molecule?
Answer: > 100 µM (inactive)

Question: And the GI50 (HOP-18)?
Answer: > 100 µM (inactive)

Question: And the GI50 (HOP-62)?
Answer: > 100 µM (inactive)

Question: What about the GI50 (HOP-92) of the same molecule?
Answer: > 100 µM (inactive)

Question: What about the GI50 (HT-29) of the same molecule?
Answer: > 100 µM (inactive)

Question: And the GI50 (IGROV-1)?
Answer: > 100 µM (inactive)

Question: What about the GI50 (KM-20L2) of the same molecule?
Answer: > 100 µM (inactive)

Question: And the GI50 (LOX IMVI)?
Answer: > 100 µM (inactive)

Question: And the GI50 (LXFL 529)?
Answer: > 100 µM (inactive)

Question: And the GI50 (M19-MEL)?
Answer: > 100 µM (inactive)

Question: What about the GI50 (MOLT-4) of the same molecule?
Answer: > 100 µM (inactive)

Question: What about the GI50 (Malme-3M) of the same molecule?
Answer: > 100 µM (inactive)

Question: What about the GI50 (NCI-H226) of the same molecule?
Answer: > 100 µM (inactive)

Question: What about the GI50 (NCI-H23) of the same molecule?
Answer: > 100 µM (inactive)

Question: What about the GI50 (NCI-H460) of the same molecule?
Answer: > 100 µM (inactive)

Question: What about the GI50 (OVCAR-3) of the same molecule?
Answer: > 100 µM (inactive)

Question: What about the GI50 (OVCAR-5) of the same molecule?
Answer: > 100 µM (inactive)

Question: What about the GI50 (OVCAR-8) of the same molecule?
Answer: > 100 µM (inactive)

Question: What about the GI50 (RPMI-8226) of the same molecule?
Answer: > 100 µM (inactive)

Question: What about the GI50 (RXF 393) of the same molecule?
Answer: > 100 µM (inactive)

Question: And the GI50 (SF-268)?
Answer: > 100 µM (inactive)

Question: What about the GI50 (SF-295) of the same molecule?
Answer: > 100 µM (inactive)

Question: What about the GI50 (SF-539) of the same molecule?
Answer: > 100 µM (inactive)

Question: And the GI50 (SK-MEL-28)?
Answer: > 100 µM (inactive)

Question: What about the GI50 (SK-MEL-2) of the same molecule?
Answer: > 100 µM (inactive)

Question: And the GI50 (SK-OV-3)?
Answer: > 100 µM (inactive)

Question: And the GI50 (SN12C)?
Answer: > 100 µM (inactive)

Question: And the GI50 (SNB-19)?
Answer: > 100 µM (inactive)

Question: What about the GI50 (SNB-75) of the same molecule?
Answer: > 100 µM (inactive)

Question: And the GI50 (SNB-78)?
Answer: > 100 µM (inactive)

Question: And the GI50 (SR)?
Answer: > 100 µM (inactive)

Question: And the GI50 (SW-620)?
Answer: > 100 µM (inactive)

Question: What about the GI50 (TK-10) of the same molecule?
Answer: > 100 µM (inactive)

Question: What about the GI50 (U-251) of the same molecule?
Answer: > 100 µM (inactive)

Question: And the GI50 (UACC-257)?
Answer: > 100 µM (inactive)

Question: What about the GI50 (UACC-62) of the same molecule?
Answer: > 100 µM (inactive)

Question: And the GI50 (UO-31)?
Answer: > 100 µM (inactive)

Question: What about the GI50 (XF498) of the same molecule?
Answer: > 100 µM (inactive)
